# System: male C57B1/6J mice subjected to hypoxia (10% O2)
# Test: Hypoxia model of experimental pulmonary hypertension
# Format: in vivo
# Settings: hypoxia (10% O2) for 7 or 10 days; 300 ppm of compound in the feed for 10 days; lung histology; compared with the hypoxia control animals (FIG. 1)
# Excerpt: The method for investigating the effect of the compound (IV) of the invention in the model of experimental pulmonary hypertension was as described (Dumitrascu R, Weissmann N, Ghofrani H A, Beuerlein K, Schmidt H H H W, Stasch J P, Gnoth M J, Seeger W, Grimminger F, Schermuly R T, Activation of soluble guanylate cyclase reverses lung vascular remodeling and pulmonary hypertension evoked by hypoxia in mice, Circulation 2006, 113: 286-295). For this purpose, male C57B1/6J mice (Charles River Laboratories) were subjected to hypoxia (10% O2) for 7 or 10 days. The control animals were kept in a normal oxygen environment. The mice were treated for 10 days with 300 ppm of compound (IV) in the feed. At the end of the test, the mice were sacrificed and the lungs were isolated. Histological workup and evaluation was carried out as in the abovementioned publication.
compound,measurement,value
COC(=O)N(C)c1c(N)nc(-c2nn(Cc3ccccc3F)c3ncccc23)nc1N [Compound (IV)],non-muscularized and partly muscularized fraction of the pulmonary vessels,significantly reduced
